# Laboratory results published in EP3845222A1, “MICROENCAPSULATED FORMULATION COMPRISING DIOSMIN, TROXERUTIN AND COUMARINS, COMPOSITIONS THEREOF AND USE THEREOF FOR THE TREATMENT OF CIRCULATORY DISORDERS” (Pharma Line S.r.l., priority 2019, dated 2021).
# System: ligated saphenous vein (LSV)
# Assay: In vivo ligated saphenous vein damage: histopathological examination (H&E)
# Set-up: species or system NMRI mice
# Conditions: control (non-ligated) mice treated for 7 days; also no signs of tissue inflammation
smiles,measurement,value
CCC(C)(C)C(=O)O[C@H]1C[C@@H](C)C=C2C=C[C@H](C)[C@H](CC[C@@H]3C[C@@H](O)CC(=O)O3)[C@H]21 [Simvastatin],changes in the lumen of the vessel,no significant changes
